Square brackets hold non-standard residues; d marks the D form. Ends that are not written are not given here. Peptide text beside a SMILES is read from it. * marks the point of attachment. Nicotinoyl = O=C(c1cccnc1)*; βAla = NCCC(=O)O
tested on: B16F10 melanocytes; assay: Screening of niacin-peptides: inhibition of melanogenesis against α-MSH; format: cell-based, mouse; design: key: relative to absorbance (490 nm) of α-MSH-only positive control; settings: 20 μg/ml α-MSH plus 10 ng/ml peptide, 3 days, UV 490 nm, α-MSH-only positive control as standard
Experimental: The present inventors screened skin whitening peptides by measuring decrease in melanogenesis using the niacin-peptide libraries prepared in Example 1. B16F10 melanocytes (the Korean Cell Line Bank) were incubated with α-MSH to induce melanogenesis and the inhibition of melanogenesis by the peptide libraries was analyzed. The mouse melanocytes were cultured at 37° C. in 5% CO2 atmosphere in DMEM supplemented with 10% FBS. The cells were seeded in each well of a 96-well plate (5×10^4 cells/well) and their attachment was verified. Afterwards, the control group was incubated with only solvent, the positive control group was incubated with 20 μg/ml of α-MSH and the other wells was incubated with 20 μg/ml of α-MSH and 10 ng/ml of peptides for 3 days.
The inhibition rates of melanogenesis by treatment of each peptide prepared in Example 1 were measured at UV 490 nm. The inhibition rates were calculated using the absorbance value of the positive control group incubated with only α-MSH as a standard, which are summarized in Table 1. The candidate peptides analyzed to show excellent screening results were selected and synthesized in a 100-μmole scale for further experiments. FIG. 1 represents the screening result of niacin-peptides.

First: nicotinoyl-beta-AHSH (Nicotinoyl-[βAla]HSH)
Second: nicotinoyl-GQPR (Nicotinoyl-GQPR)
The “Screening value: Inhibition of melanogenesis against α-MSH” value (from here on “Screening value: Inhibition”) of the first is lower: 0.82 for the first, 0.83 for the second.

First: nicotinoyl-GRKG (Nicotinoyl-GRKG)
Second: nicotinoyl-PLG-NH2 (Nicotinoyl-Pro-Leu-Gly-NH2; SMILES CC(C)C[C@H](NC(=O)[C@@H]1CCCN1C(=O)c1cccnc1)C(=O)NCC(N)=O)
The “Screening value: Inhibition” value of the first is higher: 0.93 for the first, 0.92 for the second.

Compared with nicotinoyl-NP, nicotinoyl-KAKA (Nicotinoyl-KAKA) is higher in “Screening value: Inhibition” value: 0.8 for the first, 0.87 for the second.

nicotinoyl-VEPIPY (Nicotinoyl-VEPIPY) and nicotinoyl-YGGFM (Nicotinoyl-YGGFM) are the same in “Screening value: Inhibition” value: 0.81 for the first, 0.81 for the second.

First: nicotinoyl-YGY (Nicotinoyl-Tyr-Gly-Tyr)
Second: nicotinoyl-KTTKS (Nicotinoyl-KTTKS)
The “Screening value: Inhibition” value of the first is lower: 0.69 for the first, 0.92 for the second.

First: nicotinoyl-KVK (Nicotinoyl-Lys-Val-Lys)
Second: nicotinoyl-EEMQRR-NH2 (Nicotinoyl-EEMQRR-NH2; SMILES CSCC[C@H](NC(=O)[C@H](CCC(=O)O)NC(=O)[C@H](CCC(=O)O)NC(=O)c1cccnc1)C(=O)N[C@@H](CCC(N)=O)C(=O)N[C@@H](CCCNC(=N)N)C(=O)N[C@@H](CCCNC(=N)N)C(N)=O)
The “Screening value: Inhibition” value of the first is higher: 1.01 for the first, 0.86 for the second.

First: nicotinoyl-GPHyp
Second: nicotinoyl-RKDVY (Nicotinoyl-RKDVY)
The “Screening value: Inhibition” value of the first is higher: 0.89 for the first, 0.87 for the second.

Going from nicotinoyl-TYR (Nicotinoyl-Thr-Tyr-Arg) to nicotinoyl-KRGDR (Nicotinoyl-KRGDR), the “Screening value: Inhibition” value rises from 0.72 to 0.92.

Compared with nicotinoyl-GHR (Nicotinoyl-Gly-His-Arg), nicotinoyl-YGGFL is higher in “Screening value: Inhibition” value: 0.75 for the first, 0.78 for the second.

Going from nicotinoyl-VGVAPG (Nicotinoyl-VGVAPG) to nicotinoyl-KLAKK (Nicotinoyl-KLAKK), the “Screening value: Inhibition” value rises from 0.95 to 0.96.

Going from nicotinoyl-KRGKP (Nicotinoyl-KRGKP) to nicotinoyl-SIKVAV (Nicotinoyl-SIKVAV), the “Screening value: Inhibition” value falls from 0.84 to 0.72.

Compared with nicotinoyl-FWY (Nicotinoyl-Phe-Trp-Tyr), nicotinoyl-DKYV is higher in “Screening value: Inhibition” value: 0.61 for the first, 0.87 for the second.

Compared with “nicotinoyl-GPRPA-NH2 (Nicotinoyl-GPRPA-NH2; SMILES C[C@H](NC(=O)[C@@H]1CCCN1C(=O)[C@H](CCCNC(=N)N)NC(=O)[C@@H]1CCCN1C(=O)CNC(=O)c1cccnc1)C(N)=O)”, nicotinoyl-YT is higher in “Screening value: Inhibition” value: 0.7 for the first, 0.75 for the second.

First: nicotinoyl-GEPG (Nicotinoyl-GEPG)
Second: nicotinoyl-ISELGW (Nicotinoyl-ISELGW)
The “Screening value: Inhibition” value of the first is higher: 0.96 for the first, 0.64 for the second.

Compared with nicotinoyl-YGYTGA (Nicotinoyl-YGYTGA), nicotinoyl-KVARP (Nicotinoyl-KVARP) is higher in “Screening value: Inhibition” value: 0.95 for the first, 0.96 for the second.

First: nicotinoyl-GPQGPQ (Nicotinoyl-GPQGPQ)
Second: nicotinoyl-VPAA (Nicotinoyl-VPAA)
The “Screening value: Inhibition” value of the first is higher: 0.88 for the first, 0.85 for the second.

Compared with nicotinoyl-SSNA (Nicotinoyl-SSNA), “nicotinoyl-YPFF-NH2 (Nicotinoyl-YPFF-NH2; SMILES NC(=O)[C@H](Cc1ccccc1)NC(=O)[C@H](Cc1ccccc1)NC(=O)[C@@H]1CCCN1C(=O)[C@H](Cc1ccc(O)cc1)NC(=O)c1cccnc1)” is higher in “Screening value: Inhibition” value: 0.71 for the first, 0.85 for the second.

For nicotinoyl-AHK (Nicotinoyl-Ala-His-Lys), the “Screening value: Inhibition” value was 0.8.

tested on: B16F10 cells; assay: Skin whitening effect: melanogenesis at various concentrations in α-MSH-treated melanocytes; format: cell-based, mouse; settings: 1, 10, 100 and 250 μg/ml, 3 days
Experimental: Cells were treated with various concentrations of niacin-peptide, followed by measuring activity in inhibition of melanogenesis. The mouse melanocytes were cultured at 37° C. in 5% CO2 atmosphere in DMEM supplemented with 10% FBS. The cells were seeded in each well of a 24-well plate (1×10^5 cells/well) and their attachment was verified. Cells were incubated with each test group for 3 days: (a) only solvent as negative control; (b) 20 μg/ml α-MSH as a positive control; (c) 20 μg/ml α-MSH plus 1, 10, 100 and 250 μg/ml niacin-peptides (NA-PG, NAPS, NA-ET and NA-VS); (d) 1, 10, 100 and 250 μg/ml arbutin; and (e) 1, 10, 100 and 250 μg/ml AA2G.
FIG. 5 is images of melanocytes representing treatment effects of NA-PS and PS peptides on melanogenesis decrease rate in a concentration dependent manner.
For analyzing the release amount of melanin, the absorbance values of the culture medium were measured at 490 nm.

For `OC[C@H]1O[C@@H](Oc2ccc(O)cc2)[C@H](O)[C@@H](O)[C@@H]1O` [arbutin], the “cell number compared with the α-MSH treated group” value was “significantly decreased”.

tested on: not listed separately; assay: Stability of niacin-peptides in human serum; format: in vitro ADME; settings: 100 μg/ml, incubated with human serum for 10 hr
Experimental: The prepared solutions were introduced into glass vials and kept to stand at 40° C. for 7, 14, 21, 28, 35, 42 and 60 days. […] The present inventors tested stability of niacin-peptides in human serum. Niacin-peptides (nicotinoyl-PS, 100 μg/ml) or niacin-unlinked peptide (PS, 100 μg/ml) was incubated with human serum for 10 hr, and the amount of residual peptides was measured at every hour. According to the result of the comparative stability experiment, when nicotinoyl-PS (nicotinoyl group linked to the N-terminal of PS peptide) was incubated with the serum for 10 hr, the stability of niacin-peptides was 20% higher than the control group (niacin-unlinked peptide).

In the case of `O=C(O)[C@H](CO)NC(=O)[C@@H]1CCCN1C(=O)c1cccnc1` [nicotinoyl-PS] (Nicotinoyl-Pro-Ser-OH), the “stability higher than the control group (niacin-unlinked peptide PS)” value is reported as 20%.

tested on: melanin movement from melanocytes to keratinocytes; assay: not given; settings: cited from earlier work

In the case of `NC(=O)c1cccnc1` [Niacinamide], the “decrease of melanin movement from melanocytes to keratinocytes” value is listed as 68%.

Reference: patent US9456972B2, “Niacin-peptide having skin whitening activity and use for same” (priority 2011, dated 2016)
